Test results taken from ChEMBL document CHEMBL5247592, “Discovery of novel VEGFR-2-PROTAC degraders based on the localization of lysine residues via recruiting VHL for the treatment of gastric cancer” (Eur J Med Chem, 2022).

Assays:
HGC-27 = assay: Antiproliferative activity against human HGC-27 cells assessed as inhibition of cell growth incubated for 72 hrs by MTT assay; format: functional, cell-based; details: HGC-27, 72 h
[1] = Cytotoxicity against HEK293T cells assessed as inhibition of cell growth incubated for 72 hrs by MTT assay; format: toxicity, cell-based, HEK-293T; details: human
[2] = Cytotoxicity against HUVEC cells assessed as inhibition of cell growth incubated for 72 hrs by MTT assay; format: toxicity, cell-based; details: human
[3] = Cytotoxicity against human GES1 cells assessed as inhibition of cell growth incubated for 72 hrs by MTT assay; format: toxicity, cell-based
[4] = target: von Hippel-Lindau disease tumor suppressor/Vascular endothelial growth factor receptor 2 (Homo sapiens, UniProt P35968+P40337); assay: PROTAC activity at VHL/VEGFR2 in human HGC-27 cells assessed as reduction in VEGFR2 protein level incubated for 24 hrs by Western blot analysis; format: cell-based
Chain of von Hippel-Lindau disease tumor suppressor/Vascular endothelial growth factor receptor 2 (P35968 whole entry): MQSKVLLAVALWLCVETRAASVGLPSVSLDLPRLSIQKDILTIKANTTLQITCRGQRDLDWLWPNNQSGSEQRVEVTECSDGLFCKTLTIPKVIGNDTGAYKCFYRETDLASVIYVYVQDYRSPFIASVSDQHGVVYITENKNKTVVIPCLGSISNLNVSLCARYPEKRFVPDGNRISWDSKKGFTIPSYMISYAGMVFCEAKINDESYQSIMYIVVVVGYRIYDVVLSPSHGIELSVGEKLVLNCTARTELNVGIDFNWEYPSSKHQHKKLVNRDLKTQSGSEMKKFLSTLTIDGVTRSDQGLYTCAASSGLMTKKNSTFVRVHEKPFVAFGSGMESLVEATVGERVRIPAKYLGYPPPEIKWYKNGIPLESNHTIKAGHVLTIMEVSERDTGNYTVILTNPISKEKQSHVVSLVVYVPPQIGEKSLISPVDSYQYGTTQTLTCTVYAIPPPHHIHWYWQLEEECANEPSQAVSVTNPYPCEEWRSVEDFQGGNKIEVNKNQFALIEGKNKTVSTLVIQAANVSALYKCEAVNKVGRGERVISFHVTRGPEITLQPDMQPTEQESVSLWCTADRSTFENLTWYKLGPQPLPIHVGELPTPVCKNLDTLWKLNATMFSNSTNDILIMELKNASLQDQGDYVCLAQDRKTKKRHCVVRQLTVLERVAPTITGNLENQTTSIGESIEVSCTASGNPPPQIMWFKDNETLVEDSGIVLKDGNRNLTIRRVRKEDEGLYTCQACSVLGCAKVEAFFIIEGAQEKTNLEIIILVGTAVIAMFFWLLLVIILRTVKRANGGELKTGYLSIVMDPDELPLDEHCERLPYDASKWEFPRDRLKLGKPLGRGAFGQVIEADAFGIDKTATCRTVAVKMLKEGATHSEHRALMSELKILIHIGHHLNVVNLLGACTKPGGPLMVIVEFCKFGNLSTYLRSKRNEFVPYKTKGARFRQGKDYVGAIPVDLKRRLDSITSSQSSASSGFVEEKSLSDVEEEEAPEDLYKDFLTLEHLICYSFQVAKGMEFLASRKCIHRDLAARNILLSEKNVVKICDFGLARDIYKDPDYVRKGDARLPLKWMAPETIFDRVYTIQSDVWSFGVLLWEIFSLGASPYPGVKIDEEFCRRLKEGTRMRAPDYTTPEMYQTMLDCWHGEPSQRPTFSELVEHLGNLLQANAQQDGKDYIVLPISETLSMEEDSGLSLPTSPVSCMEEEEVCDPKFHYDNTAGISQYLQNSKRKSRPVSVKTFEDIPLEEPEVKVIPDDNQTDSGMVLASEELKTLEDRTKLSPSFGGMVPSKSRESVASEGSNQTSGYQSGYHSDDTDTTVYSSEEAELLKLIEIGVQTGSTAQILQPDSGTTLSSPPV
Chain of von Hippel-Lindau disease tumor suppressor/Vascular endothelial growth factor receptor 2 (P40337 whole entry): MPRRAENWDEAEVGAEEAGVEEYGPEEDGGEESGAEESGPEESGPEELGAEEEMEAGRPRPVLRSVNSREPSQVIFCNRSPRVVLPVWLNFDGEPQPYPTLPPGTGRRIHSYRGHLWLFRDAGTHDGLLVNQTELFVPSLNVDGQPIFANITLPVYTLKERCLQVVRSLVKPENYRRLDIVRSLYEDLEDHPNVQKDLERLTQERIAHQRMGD

| EC50 [4] [µM] | Compound | IC50 (HGC-27) [µM] | IC50 at 72 h [1] [µM] | IC50 at 72 h [2] [µM] | IC50 at 72 h [3] [µM] |
| --- | --- | --- | --- | --- | --- |
|  | Cc1ccc(NC(=O)Cn2cc(-c3ccc4c(NC(=O)c5ccc(NC(=O)CCCCC(=O)N6CCN(CCCCCCCC(=O)N[C@H](C(=O)N7C[C@H](O)C[C@H]7C(=O)NCc7ccc(-c8scnc8C)cc7)C(C)(C)C)CC6)cc5)n[nH]c4c3)cn2)cc1C(F)(F)F | 44.7 | 31.9 | 25 | 47.9 |
|  | Cc1ccc(NC(=O)Cn2cc(-c3ccc4c(NC(=O)c5ccc(N6CCN(CCCCCC(=O)N[C@H](C(=O)N7C[C@H](O)C[C@H]7C(=O)NCc7ccc(-c8scnc8C)cc7)C(C)(C)C)CC6)cc5)n[nH]c4c3)cn2)cc1C(F)(F)F | > 50 | 43.8 | > 50 | > 100 |
|  | Cc1ccc(NC(=O)Cn2cc(-c3ccc4c(NC(=O)c5ccc(NC(=O)CCCCC(=O)N6CCN(CCCCCC(=O)N[C@H](C(=O)N7C[C@H](O)C[C@H]7C(=O)NCc7ccc(-c8scnc8C)cc7)C(C)(C)C)CC6)cc5)n[nH]c4c3)cn2)cc1C(F)(F)F | 23.9 | > 100 | > 50 | 26.8 |
| > 3.33 | Cc1ccc(NC(=O)Cn2cc(-c3ccc4c(NC(=O)c5ccc(NC(=O)CCCCCC(=O)N[C@H](C(=O)N6C[C@H](O)C[C@H]6C(=O)NCc6ccc(-c7scnc7C)cc6)C(C)(C)C)cc5)n[nH]c4c3)cn2)cc1C(F)(F)F | 7.26 | > 100 | > 50 | 31.3 |
|  | Cc1ccc(NC(=O)Cn2cc(-c3ccc4c(NC(=O)c5ccc(NC(=O)CCCCCCCCCC(=O)N[C@H](C(=O)N6C[C@H](O)C[C@H]6C(=O)NCc6ccc(-c7scnc7C)cc6)C(C)(C)C)cc5)n[nH]c4c3)cn2)cc1C(F)(F)F | 55.6 | > 100 | > 50 | 12 |
|  | Cc1ccc(NC(=O)Cn2cc(-c3ccc4c(NC(=O)c5ccc(N6CCN(C(=O)NCCCCCCC(=O)N[C@H](C(=O)N7C[C@H](O)C[C@H]7C(=O)NCc7ccc(-c8scnc8C)cc7)C(C)(C)C)CC6)cc5)n[nH]c4c3)cn2)cc1C(F)(F)F | > 50 | > 100 | > 100 | > 100 |
| > 3.33 | Cc1ccc(NC(=O)Cn2cc(-c3ccc4c(NC(=O)c5ccc(NC(=O)CCCCCCCCC(=O)N[C@H](C(=O)N6C[C@@H](O)C[C@H]6C(=O)NCc6ccc(-c7scnc7C)cc6)C(C)(C)C)cc5)n[nH]c4c3)cn2)cc1C(F)(F)F | 2.09 | > 100 | 12.2 | 5.13 |
|  | Cc1ccc(NC(=O)Cn2cc(-c3ccc4c(NC(=O)c5ccc(NC(=O)CCCCC(=O)N6CCN(CCCC(=O)N[C@H](C(=O)N7C[C@H](O)C[C@H]7C(=O)NCc7ccc(-c8scnc8C)cc7)C(C)(C)C)CC6)cc5)n[nH]c4c3)cn2)cc1C(F)(F)F | 30.9 | 38.2 | 10.9 | 25.4 |
|  | CNC(=O)c1cc(Oc2ccc(NC(=O)Nc3ccc(Cl)c(C(F)(F)F)c3)cc2)ccn1 [SORAFENIB] | 5.15 | 6.38 | 9.66 | 9.47 |
|  | Cc1ccc(NC(=O)Cn2cc(-c3ccc4c(NC(=O)c5ccc(N6CCN(C(=O)NCCCCCCCCCCC(=O)N[C@H](C(=O)N7C[C@H](O)C[C@H]7C(=O)NCc7ccc(-c8scnc8C)cc7)C(C)(C)C)CC6)cc5)n[nH]c4c3)cn2)cc1C(F)(F)F | > 50 | > 100 | > 100 | > 100 |
|  | Cc1ccc(NC(=O)Cn2cc(-c3ccc4c(NC(=O)c5ccc(NC(=O)CCC(=O)N[C@H](C(=O)N6C[C@H](O)C[C@H]6C(=O)NCc6ccc(-c7scnc7C)cc6)C(C)(C)C)cc5)n[nH]c4c3)cn2)cc1C(F)(F)F | > 50 | 48.2 | 28.2 | 47.4 |
|  | Cc1ccc(NC(=O)Cn2cc(-c3ccc4c(NC(=O)c5ccc(N6CCN(C(=O)NCCCCCCCCC(=O)N[C@H](C(=O)N7C[C@H](O)C[C@H]7C(=O)NCc7ccc(-c8scnc8C)cc7)C(C)(C)C)CC6)cc5)n[nH]c4c3)cn2)cc1C(F)(F)F | > 50 | > 100 | > 100 | > 100 |
